Assay results as given in US20250311722A1, “IMPROVED BIOCIDE” (Purgos ApS, priority 2022, published 2025).
Values joined by “and” are separate entries in the source; they are usually repeats but may differ in a detail not shown here. Equal values may be shown once.

What was measured:
Assay in all cases: Minimal inhibitory concentration (MIC)
Type in all cases: cell-based
[1] = tested on: Aspergillus niger ISI 3
Procedure: (§1) Minimum inhibitory concentrations (MICs) are defined as the lowest concentration of an antimicrobial that will inhibit the visible growth of a microorganism after a standardized incubation. In the present study, MIC assay was performed by pipetting robot. The principle is that an indicator microorganism at a defined cell density is cultured with a range of concentrations of the test compound, one concentration pr, well in a row on the microtiter plate. For bacteria and yeasts the minimal inhibitory concentration was detected as no increase of optical density (OD), for moulds microtiter plates were read visually. Each indicator organism is tested in duplicate and the MIC is calculated as the average of the two determinations. The tested concentrations of the antimicrobial substances were 2-fold dilutions from 5%. All indicator organisms (see Table 2.) were pre-cultivated in a suitable growth medium and diluted in the same medium to give a final concentration in the assay of ˜1×10^3 cfu/ml. The microtiter plates were incubated under specific incubation conditions (see Table III). [table]

[2] = tested on: Bacillus cereus ISI 842
Procedure: as §1

[3] = tested on: Candida albicans ISI 1226
Procedure: as §1

[4] = tested on: Debaryomyces hansenii ISI 12
Procedure: as §1

[5] = tested on: Lactobacillus brevis ISI 2269
Procedure: as §1

[6] = tested on: Leuconostoc mesenteroides ISI 504
Procedure: as §1

[7] = tested on: Listeria monocytogenes ISI 22
Procedure: as §1

[8] = tested on: Pseudomonas aeruginosa ISI 1462
Procedure: as §1

[9] = tested on: Salmonella Infantis ISI 170
Procedure: as §1

[10] = tested on: Streptococcus termophilus ISI 1563
Procedure: as §1

CCCCN(CCO)CCO [NBDA, N-butyldiethanolamine]
MIC (%) [1]: 0.63%
MIC (%) [2]: 1.25%
MIC data (optical density) ([2]; 0.02% NBDA): 0.797 and 0.933
MIC data (optical density) ([2]; 0.04% NBDA): 0.953 and 0.926
MIC data (optical density) ([2]; 0.08% NBDA): 0.880 and 0.764
MIC data (optical density) ([2]; 0.16% NBDA): 0.716 and 0.833
MIC data (optical density) ([2]; 0.31% NBDA): 0.811 and 0.739
MIC data (optical density) ([2]; 0.63% NBDA): 0.664 and 0.824
MIC data (optical density) ([2]; 1.25% NBDA): 0.108 and 0.143
MIC data (optical density) ([2]; 2.50% NBDA): 0.100 and 0.145
MIC data (optical density) ([2]; 5.00% NBDA): 0.087 and 0.120
MIC (%) [3]: 0.63%
MIC data (optical density) ([3]; 0.02% NBDA): 1.272 and 1.291
MIC data (optical density) ([3]; 0.04% NBDA): 1.243 and 1.259
MIC data (optical density) ([3]; 0.08% NBDA): 1.223 and 1.256
MIC data (optical density) ([3]; 0.16% NBDA): 1.118 and 1.134
MIC data (optical density) ([3]; 0.31% NBDA): 0.886 and 0.984
MIC data (optical density) ([3]; 0.63% NBDA): 0.056
MIC data (optical density) ([3]; 1.25% NBDA): 0.051 and 0.050
MIC data (optical density) ([3]; 2.50% NBDA): 0.047 and 0.046
MIC data (optical density) ([3]; 5.00% NBDA): 0.042 and 0.044
MIC (%) [4]: 1.25%
MIC data (optical density) ([4]; 0.02% NBDA): 1.027 and 1.215
MIC data (optical density) ([4]; 0.04% NBDA): 0.964 and 1.224
MIC data (optical density) ([4]; 0.08% NBDA): 0.974 and 1.114
MIC data (optical density) ([4]; 0.16% NBDA): 0.975 and 1.145
MIC data (optical density) ([4]; 0.31% NBDA): 0.877 and 0.973
MIC data (optical density) ([4]; 0.63% NBDA): 0.619 and 0.582
MIC data (optical density) ([4]; 1.25% NBDA): 0.047
MIC data (optical density) ([4]; 2.50% NBDA): 0.045 and 0.046
MIC data (optical density) ([4]; 5.00% NBDA): 0.044 and 0.043
MIC (%) [5]: 0.16%
MIC data (optical density) ([5]; 0.02% NBDA): 0.509 and 0.458
MIC data (optical density) ([5]; 0.04% NBDA): 0.468 and 0.485
MIC data (optical density) ([5]; 0.08% NBDA): 0.465 and 0.586
MIC data (optical density) ([5]; 0.16% NBDA): 0.054 and 0.057
MIC data (optical density) ([5]; 0.31% NBDA): 0.049 and 0.048
MIC data (optical density) ([5]; 0.63% NBDA): 0.047 and 0.046
MIC data (optical density) ([5]; 1.25% NBDA): 0.047 and 0.045
MIC data (optical density) ([5]; 2.50% NBDA): 0.046 and 0.049
MIC data (optical density) ([5]; 5.00% NBDA): 0.043 and 0.040
MIC (%) [6]: 0.31%
MIC data (optical density) ([6]; 0.02% NBDA): 1.025 and 0.943
MIC data (optical density) ([6]; 0.04% NBDA): 1.135 and 1.104
MIC data (optical density) ([6]; 0.08% NBDA): 1.005 and 1.027
MIC data (optical density) ([6]; 0.16% NBDA): 1.065 and 0.990
MIC data (optical density) ([6]; 0.31% NBDA): 0.051 and 0.052
MIC data (optical density) ([6]; 0.63% NBDA): 0.047 and 0.049
MIC data (optical density) ([6]; 1.25% NBDA): 0.046 and 0.047
MIC data (optical density) ([6]; 2.50% NBDA): 0.046
MIC data (optical density) ([6]; 5.00% NBDA): 0.044 and 0.041
MIC (%) [7]: 1.25%
MIC data (optical density) ([7]; 0.02% NBDA): 1.182 and 1.216
MIC data (optical density) ([7]; 0.04% NBDA): 1.184 and 1.216
MIC data (optical density) ([7]; 0.08% NBDA): 1.165 and 1.119
MIC data (optical density) ([7]; 0.16% NBDA): 1.074 and 0.574
MIC data (optical density) ([7]; 0.31% NBDA): 1.027 and 0.645
MIC data (optical density) ([7]; 0.63% NBDA): 0.938 and 0.759
MIC data (optical density) ([7]; 1.25% NBDA): 0.047 and 0.048
MIC data (optical density) ([7]; 2.50% NBDA): 0.046 and 0.056
MIC data (optical density) ([7]; 5.00% NBDA): 0.045 and 0.056
MIC (%) [8]: 0.63%
MIC data (optical density) ([8]; 0.02% NBDA): 1.725 and 1.921
MIC data (optical density) ([8]; 0.04% NBDA): 1.894 and 1.661
MIC data (optical density) ([8]; 0.08% NBDA): 1.938 and 1.871
MIC data (optical density) ([8]; 0.16% NBDA): 1.888 and 1.911
MIC data (optical density) ([8]; 0.31% NBDA): 1.668 and 1.319
MIC data (optical density) ([8]; 0.63% NBDA): 0.047 and 0.044
MIC data (optical density) ([8]; 1.25% NBDA): 0.045 and 0.043
MIC data (optical density) ([8]; 2.50% NBDA): 0.046 and 0.047
MIC data (optical density) ([8]; 5.00% NBDA): 0.045
MIC (%) [9]: 1.25%
MIC data (optical density) ([9]; 0.02% NBDA): 1.662 and 1.413
MIC data (optical density) ([9]; 0.04% NBDA): 1.501 and 1.629
MIC data (optical density) ([9]; 0.08% NBDA): 1.640 and 1.623
MIC data (optical density) ([9]; 0.16% NBDA): 1.566 and 1.546
MIC data (optical density) ([9]; 0.31% NBDA): 1.389 and 1.282
MIC data (optical density) ([9]; 0.63% NBDA): 0.905 and 0.965
MIC data (optical density) ([9]; 1.25% NBDA): 0.046 and 0.040
MIC data (optical density) ([9]; 2.50% NBDA): 0.047 and 0.044
MIC data (optical density) ([9]; 5.00% NBDA): 0.044 and 0.043
MIC (%) [10]: 0.63%
MIC data (optical density) ([10]; 0.02% NBDA): 0.57 and 0.515
MIC data (optical density) ([10]; 0.04% NBDA): 0.445 and 0.473
MIC data (optical density) ([10]; 0.08% NBDA): 0.431 and 0.462
MIC data (optical density) ([10]; 0.16% NBDA): 0.444 and 0.438
MIC data (optical density) ([10]; 0.31% NBDA): 0.115 and 0.108
MIC data (optical density) ([10]; 0.63% NBDA): 0.046 and 0.043
MIC data (optical density) ([10]; 1.25% NBDA): 0.044 and 0.045
MIC data (optical density) ([10]; 2.50% NBDA): 0.049
MIC data (optical density) ([10]; 5.00% NBDA): 0.041 and 0.042
